Assay results reported in ChEMBL document CHEMBL1201862, “PubChem BioAssay data set” (2004).
The source made the active and inactive calls.

Key:
[1] = target: Procathepsin L (Homo sapiens, UniProt P07711)
[2] = target: Aspartyl aminopeptidase (Plasmodium falciparum 3D7, UniProt Q8I2J3)
[3] = viability of PTEN-deleted HCT116 cells – cell-based, HCT116 PTEN knockout, dose response (AID 1047); format: functional;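 also: HCT116 colon tumor cells with PTEN knocked out; cells exposed to compound for 60 hours before readout; potency for loss of cell viability measured by luminescence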
[4] = viability of HCT116 lacking mutant beta-catenin – cell-based, human colon tumor, dose response (AID 1045); format: functional;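 also: HCT116 colon tumor cells with beta catenin knocked out; cells exposed to compound for 60 hours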
[5] = target: X-box-binding protein 1 (Homo sapiens, UniProt P17861); format: functional, Cricetulus griseus;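 also: confirmatory dose-response counter-screen serving a CHOP assay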
[6] = test system: INS1; assay: INS-1E survival protection against cytokine death – cell-based, luminescence, retest, dose response (AID 449756); format: functional; conditions: Rattus norvegicus;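 also: cell death triggered by IL-1 beta plus TNF-alpha plus IFN-gamma mixture; protective hits raise ATP signal compared with cytokine alone wells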
[7] = viability of uninfected HEp-2 cells – cell-based, HTS, cytotoxicity control for RSV inhibitor project, dose response (AID 2410); format: functional; conditions: human respiratory syncytial virus
[8] = cells; format: functional
[9] = target: Acyl-homoserine lactone acylase PvdQ (Pseudomonas aeruginosa (strain LESB58), UniProt Q9I194); assay: PvdQ acylase enzyme activity blockers – biochemical, fluorescence, plate reader and imaging, cherry-picks, dose response (AID 493231)
[10] = target: T1, Estrogen receptor (Homo sapiens, UniProt P03372);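 also: potency for inhibiting coactivator peptide recruitment to the receptor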
T1 sequence (P03372 whole entry): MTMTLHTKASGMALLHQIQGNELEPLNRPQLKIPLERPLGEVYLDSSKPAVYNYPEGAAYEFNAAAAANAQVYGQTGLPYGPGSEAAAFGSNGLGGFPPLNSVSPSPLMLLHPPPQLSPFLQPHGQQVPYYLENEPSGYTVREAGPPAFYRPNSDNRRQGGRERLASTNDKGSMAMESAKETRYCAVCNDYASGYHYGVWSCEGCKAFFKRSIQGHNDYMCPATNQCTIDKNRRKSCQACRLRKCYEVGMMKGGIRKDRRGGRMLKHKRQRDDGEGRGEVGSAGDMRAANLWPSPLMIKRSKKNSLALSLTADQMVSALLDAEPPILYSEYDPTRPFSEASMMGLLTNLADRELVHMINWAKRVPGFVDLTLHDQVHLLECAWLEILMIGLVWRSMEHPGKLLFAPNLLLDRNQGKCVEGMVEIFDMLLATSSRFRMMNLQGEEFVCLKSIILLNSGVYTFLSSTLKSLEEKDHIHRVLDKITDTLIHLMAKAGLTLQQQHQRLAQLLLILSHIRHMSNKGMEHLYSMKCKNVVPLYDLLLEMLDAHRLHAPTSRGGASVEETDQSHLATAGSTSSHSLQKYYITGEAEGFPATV

[11] = antiviral protection against BTV-induced cell death – arbovirus, BSR cells, confirmation (AID 1250); format: functional;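 also: protection from viral cytopathic effect measured as cell viability by ATP luminescence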
[12] = cells
[13] = target: T2, Estrogen receptor beta (Homo sapiens, UniProt Q92731);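 also: recombinant ER-beta bound to coactivator SRC1 peptide in presence of estradiol agonist; inhibitors block coactivator peptide binding and lower the FRET signal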
[14] = target: Protein Tat (Human immunodeficiency virus type 1 group M subtype B (isolate HXB2)(HIV-1), UniProt P04608); format: functional;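 also: tat binding to TAR RNA read out by fluorescence polarization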
[15] = target: Ephrin type-A receptor 4 (Mus musculus, UniProt Q03137); assay: EphA4 ligand-binding antagonists – biochemical, colorimetric, mouse EphA4, primary screen (AID 689); format: functional
[16] = target: T2, Estrogen receptor beta; assay: blockers of SRC-3 recruitment to ERβ – biochemical, ELISA, streptavidin-HRP readout, orthogonal assay, confirmation (AID 1060)
[17] = viability loss in THP-1 monocytes – THP-1 cells, cytotoxicity control for Vif-APOBEC3G degradation inhibitor project, dose response (AID 1117359); format: functional; conditions: THP-1
[18] = target: Induced myeloid leukemia cell differentiation protein Mcl-1 (Homo sapiens, UniProt Q07820); format: functional
[19] = test system: HEK293; assay: cells; conditions: Homo sapiens;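 also: cells exposed to compound for 14 hours overnight before viability readout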
[20] = target: Tumor necrosis factor (Homo sapiens, UniProt P01375); assay: analog potency on TNFa NF-kB signaling – cell-based, revised, SAR follow-up (AID 2337); format: functional
[21] = target: Nucleotide-binding oligomerization domain-containing protein 2 (Homo sapiens, UniProt Q9HC29); assay: PubChem AID 2334; format: functional
[22] = target: T3, Nucleotide-binding oligomerization domain-containing protein 1 (Homo sapiens, UniProt Q9Y239); assay: blockers of NOD1 pathway activity – revised, SAR follow-up (AID 2333); format: functional
T3 sequence (Q9Y239 whole entry): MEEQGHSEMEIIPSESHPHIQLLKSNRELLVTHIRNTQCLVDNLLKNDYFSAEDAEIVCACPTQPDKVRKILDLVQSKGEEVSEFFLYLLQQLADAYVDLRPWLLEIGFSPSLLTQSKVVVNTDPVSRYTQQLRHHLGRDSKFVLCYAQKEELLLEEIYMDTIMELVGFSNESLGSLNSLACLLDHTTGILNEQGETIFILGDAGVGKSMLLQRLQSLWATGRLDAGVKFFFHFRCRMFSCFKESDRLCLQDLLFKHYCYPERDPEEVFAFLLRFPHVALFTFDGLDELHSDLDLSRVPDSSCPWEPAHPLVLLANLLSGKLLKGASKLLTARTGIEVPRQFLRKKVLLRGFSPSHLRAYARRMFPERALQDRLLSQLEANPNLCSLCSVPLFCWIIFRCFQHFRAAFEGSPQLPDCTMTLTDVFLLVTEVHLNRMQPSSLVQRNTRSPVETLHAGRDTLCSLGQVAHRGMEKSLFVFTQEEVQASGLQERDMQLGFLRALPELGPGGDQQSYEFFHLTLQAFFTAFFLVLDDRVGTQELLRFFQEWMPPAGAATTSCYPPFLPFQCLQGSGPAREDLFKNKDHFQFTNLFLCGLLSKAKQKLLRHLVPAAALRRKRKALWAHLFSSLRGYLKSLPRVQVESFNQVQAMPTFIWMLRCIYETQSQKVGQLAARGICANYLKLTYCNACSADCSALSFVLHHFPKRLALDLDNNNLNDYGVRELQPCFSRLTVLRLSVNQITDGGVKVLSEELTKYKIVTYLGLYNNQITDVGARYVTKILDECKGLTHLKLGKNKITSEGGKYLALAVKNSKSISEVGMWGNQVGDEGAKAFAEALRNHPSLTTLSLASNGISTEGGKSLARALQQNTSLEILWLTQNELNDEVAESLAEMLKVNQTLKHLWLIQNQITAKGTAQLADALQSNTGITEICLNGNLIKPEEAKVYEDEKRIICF

[23] = target: T4, Zinc finger protein mex-5 (Caenorhabditis elegans, UniProt Q9XUB2); assay: potency of MEX-5 RNA-binding blockers – biochemical, C. elegans, fluorescence polarization, dose response (AID 1960)
T4 sequence (Q9XUB2 whole entry): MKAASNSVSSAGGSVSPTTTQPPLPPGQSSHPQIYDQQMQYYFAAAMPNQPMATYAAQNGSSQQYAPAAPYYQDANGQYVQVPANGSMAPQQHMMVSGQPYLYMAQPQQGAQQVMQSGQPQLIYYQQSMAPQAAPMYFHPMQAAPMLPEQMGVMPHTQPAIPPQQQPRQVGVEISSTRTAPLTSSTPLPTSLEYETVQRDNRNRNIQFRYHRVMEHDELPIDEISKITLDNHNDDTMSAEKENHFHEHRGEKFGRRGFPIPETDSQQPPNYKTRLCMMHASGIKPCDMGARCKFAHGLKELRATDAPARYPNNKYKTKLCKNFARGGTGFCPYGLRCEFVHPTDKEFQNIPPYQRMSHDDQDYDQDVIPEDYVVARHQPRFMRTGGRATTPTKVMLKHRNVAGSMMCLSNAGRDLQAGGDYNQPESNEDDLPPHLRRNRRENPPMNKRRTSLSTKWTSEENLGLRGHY

[24] = target: T5, Tyrosine-protein phosphatase non-receptor type 7 (Homo sapiens, UniProt P35236); assay: redox-active compounds inhibiting HePTP phosphatase – biochemical, fluorescence, mechanism study (AID 2068); format: functional
T5 sequence (P35236 whole entry): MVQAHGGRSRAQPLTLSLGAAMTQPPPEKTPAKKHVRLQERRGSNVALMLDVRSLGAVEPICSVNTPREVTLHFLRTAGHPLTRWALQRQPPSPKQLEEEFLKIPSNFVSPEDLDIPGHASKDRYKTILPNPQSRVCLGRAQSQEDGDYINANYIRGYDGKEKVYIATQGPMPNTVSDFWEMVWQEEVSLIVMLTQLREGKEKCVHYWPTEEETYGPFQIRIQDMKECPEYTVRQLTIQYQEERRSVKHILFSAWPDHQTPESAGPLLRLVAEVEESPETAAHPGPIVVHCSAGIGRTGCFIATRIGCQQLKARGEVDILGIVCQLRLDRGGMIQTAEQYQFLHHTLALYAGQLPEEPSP

[25] = target: Genome polyprotein (dengue virus type 2, UniProt P29990); assay: flavivirus cap methylation enzyme inhibition – biochemical, confirmation dose response, primary screen (AID 588689); format: functional
[26] = target: T6, Coagulation factor XII (Homo sapiens, UniProt P00748); format: functional;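 also: activated factor XIIa alpha cleaving a fluorogenic AMC peptide substrate; inhibitor potency from loss of enzyme activity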
T6 sequence (P00748 whole entry): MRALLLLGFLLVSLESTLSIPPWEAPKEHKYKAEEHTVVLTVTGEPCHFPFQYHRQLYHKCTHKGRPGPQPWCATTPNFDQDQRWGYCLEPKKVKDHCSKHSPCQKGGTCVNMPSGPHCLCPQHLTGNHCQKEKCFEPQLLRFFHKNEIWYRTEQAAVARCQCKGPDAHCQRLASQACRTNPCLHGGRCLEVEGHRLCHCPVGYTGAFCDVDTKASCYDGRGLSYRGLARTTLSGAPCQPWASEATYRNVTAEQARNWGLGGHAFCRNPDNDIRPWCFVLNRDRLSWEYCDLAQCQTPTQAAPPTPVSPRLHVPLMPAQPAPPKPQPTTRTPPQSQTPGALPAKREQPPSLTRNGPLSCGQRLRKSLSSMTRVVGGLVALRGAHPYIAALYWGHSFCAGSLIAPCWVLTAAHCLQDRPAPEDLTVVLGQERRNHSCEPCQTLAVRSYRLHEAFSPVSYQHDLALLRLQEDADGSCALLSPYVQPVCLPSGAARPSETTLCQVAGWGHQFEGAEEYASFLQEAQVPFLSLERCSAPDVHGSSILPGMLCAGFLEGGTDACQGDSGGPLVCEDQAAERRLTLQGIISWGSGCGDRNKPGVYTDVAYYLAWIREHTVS

[27] = target: T7, RNA-binding protein pos-1 (Caenorhabditis elegans, UniProt G5EF15); assay: disruptors of C. elegans POS-1 RNA interaction – biochemical, fluorescence polarization, dose response (AID 1964);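 also: purified POS-1 fused to maltose binding protein made in E. coli; potency of compounds blocking POS-1 binding to fluorescent RNA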
T7 sequence (G5EF15 whole entry): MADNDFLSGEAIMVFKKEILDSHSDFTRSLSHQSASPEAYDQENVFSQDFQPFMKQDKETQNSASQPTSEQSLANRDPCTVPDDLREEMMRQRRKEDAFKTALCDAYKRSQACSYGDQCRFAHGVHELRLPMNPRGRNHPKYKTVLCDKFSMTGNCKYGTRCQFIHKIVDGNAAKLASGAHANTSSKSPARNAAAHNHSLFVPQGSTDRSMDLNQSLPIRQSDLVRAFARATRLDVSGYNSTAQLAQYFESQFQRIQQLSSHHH

Sequence of Nucleotide-binding oligomerization domain-containing protein 2 (Q9HC29 whole entry, the tested form may be a part): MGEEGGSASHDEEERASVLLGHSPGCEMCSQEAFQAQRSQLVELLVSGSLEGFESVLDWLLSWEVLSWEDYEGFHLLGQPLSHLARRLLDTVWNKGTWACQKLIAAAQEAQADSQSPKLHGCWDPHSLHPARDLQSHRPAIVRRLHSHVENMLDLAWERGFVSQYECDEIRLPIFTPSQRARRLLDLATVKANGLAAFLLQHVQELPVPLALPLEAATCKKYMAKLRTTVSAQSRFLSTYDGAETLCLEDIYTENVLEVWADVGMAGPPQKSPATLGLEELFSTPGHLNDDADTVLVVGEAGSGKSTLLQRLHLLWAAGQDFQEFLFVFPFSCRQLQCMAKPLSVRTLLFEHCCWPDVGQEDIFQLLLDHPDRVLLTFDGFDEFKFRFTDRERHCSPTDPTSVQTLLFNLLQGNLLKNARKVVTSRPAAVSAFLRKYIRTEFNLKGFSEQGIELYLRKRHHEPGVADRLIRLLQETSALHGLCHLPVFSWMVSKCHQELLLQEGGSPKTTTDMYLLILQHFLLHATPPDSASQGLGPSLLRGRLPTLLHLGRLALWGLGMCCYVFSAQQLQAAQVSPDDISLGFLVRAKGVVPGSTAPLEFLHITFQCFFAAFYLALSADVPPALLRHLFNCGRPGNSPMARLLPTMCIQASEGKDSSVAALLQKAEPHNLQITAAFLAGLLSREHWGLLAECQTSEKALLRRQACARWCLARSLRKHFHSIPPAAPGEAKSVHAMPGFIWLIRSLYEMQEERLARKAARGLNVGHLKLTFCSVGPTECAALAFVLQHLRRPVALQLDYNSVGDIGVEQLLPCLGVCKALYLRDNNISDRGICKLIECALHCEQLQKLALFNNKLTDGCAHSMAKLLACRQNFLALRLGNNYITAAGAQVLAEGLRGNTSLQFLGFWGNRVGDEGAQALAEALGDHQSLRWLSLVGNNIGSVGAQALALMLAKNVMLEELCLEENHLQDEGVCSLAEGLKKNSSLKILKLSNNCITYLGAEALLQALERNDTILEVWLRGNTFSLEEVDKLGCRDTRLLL
T2 sequence (Q92731 whole entry): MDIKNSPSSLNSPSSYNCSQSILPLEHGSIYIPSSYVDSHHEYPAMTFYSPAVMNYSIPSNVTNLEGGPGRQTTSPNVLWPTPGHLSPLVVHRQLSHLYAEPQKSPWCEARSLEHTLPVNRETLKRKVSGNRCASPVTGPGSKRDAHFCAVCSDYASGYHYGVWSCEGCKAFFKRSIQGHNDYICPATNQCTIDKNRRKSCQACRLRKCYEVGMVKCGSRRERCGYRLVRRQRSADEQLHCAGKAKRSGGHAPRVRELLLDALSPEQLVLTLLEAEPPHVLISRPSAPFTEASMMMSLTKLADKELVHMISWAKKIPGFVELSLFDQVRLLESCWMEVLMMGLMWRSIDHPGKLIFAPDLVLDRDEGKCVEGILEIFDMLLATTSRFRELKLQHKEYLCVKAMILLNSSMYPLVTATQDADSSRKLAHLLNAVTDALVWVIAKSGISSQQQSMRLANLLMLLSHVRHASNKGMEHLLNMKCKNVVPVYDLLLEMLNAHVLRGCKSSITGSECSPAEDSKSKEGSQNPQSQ
Sequence of Tumor necrosis factor (P01375 whole entry, the tested form may be a part): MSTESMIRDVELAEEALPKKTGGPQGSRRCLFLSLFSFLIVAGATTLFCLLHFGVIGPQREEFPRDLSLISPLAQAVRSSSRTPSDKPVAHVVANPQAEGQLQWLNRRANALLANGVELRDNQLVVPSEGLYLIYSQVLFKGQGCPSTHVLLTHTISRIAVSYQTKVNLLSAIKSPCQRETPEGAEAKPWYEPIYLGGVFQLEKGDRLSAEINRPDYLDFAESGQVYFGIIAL
Sequence of Induced myeloid leukemia cell differentiation protein Mcl-1 (Q07820 whole entry): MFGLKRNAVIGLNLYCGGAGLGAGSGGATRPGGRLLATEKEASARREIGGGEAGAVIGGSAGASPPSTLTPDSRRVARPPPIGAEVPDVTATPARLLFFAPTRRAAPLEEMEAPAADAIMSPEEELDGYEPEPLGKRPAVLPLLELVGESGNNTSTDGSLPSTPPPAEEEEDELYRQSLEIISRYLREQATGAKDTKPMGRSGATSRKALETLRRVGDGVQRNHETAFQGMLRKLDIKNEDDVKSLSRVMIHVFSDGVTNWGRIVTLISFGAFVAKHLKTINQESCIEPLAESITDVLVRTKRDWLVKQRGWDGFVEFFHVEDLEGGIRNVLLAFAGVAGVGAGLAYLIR
Sequence of Acyl-homoserine lactone acylase PvdQ (Q9I194 24-193 limits assumed): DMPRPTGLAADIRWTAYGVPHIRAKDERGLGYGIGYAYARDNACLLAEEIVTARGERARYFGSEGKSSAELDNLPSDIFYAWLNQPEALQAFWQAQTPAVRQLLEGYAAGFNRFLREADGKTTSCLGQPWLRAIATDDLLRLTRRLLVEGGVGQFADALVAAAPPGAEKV
Sequence of Acyl-homoserine lactone acylase PvdQ (Q9I194 217-762 limits assumed): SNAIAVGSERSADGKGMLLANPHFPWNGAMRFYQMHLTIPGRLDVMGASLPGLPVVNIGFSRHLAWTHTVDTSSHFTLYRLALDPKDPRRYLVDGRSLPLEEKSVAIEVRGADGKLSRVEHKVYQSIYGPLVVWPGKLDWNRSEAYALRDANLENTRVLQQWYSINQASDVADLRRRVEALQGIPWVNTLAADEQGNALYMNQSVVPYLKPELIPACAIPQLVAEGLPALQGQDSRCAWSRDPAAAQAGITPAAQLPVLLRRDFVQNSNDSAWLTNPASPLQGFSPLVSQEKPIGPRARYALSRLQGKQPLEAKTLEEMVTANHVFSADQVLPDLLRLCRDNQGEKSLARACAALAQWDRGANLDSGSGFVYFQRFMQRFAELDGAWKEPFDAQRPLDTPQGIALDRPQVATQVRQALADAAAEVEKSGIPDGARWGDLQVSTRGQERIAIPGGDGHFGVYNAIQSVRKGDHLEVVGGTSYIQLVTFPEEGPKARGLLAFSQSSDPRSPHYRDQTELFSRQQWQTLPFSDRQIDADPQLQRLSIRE
Sequence of X-box-binding protein 1 (P17861 whole entry): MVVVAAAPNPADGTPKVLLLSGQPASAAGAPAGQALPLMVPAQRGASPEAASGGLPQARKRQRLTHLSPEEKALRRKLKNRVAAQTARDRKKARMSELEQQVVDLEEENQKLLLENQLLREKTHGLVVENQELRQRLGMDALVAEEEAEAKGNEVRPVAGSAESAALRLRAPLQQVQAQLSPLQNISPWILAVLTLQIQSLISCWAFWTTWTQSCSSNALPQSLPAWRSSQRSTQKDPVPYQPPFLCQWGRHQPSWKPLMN
Sequence of Aspartyl aminopeptidase (Q8I2J3 whole entry): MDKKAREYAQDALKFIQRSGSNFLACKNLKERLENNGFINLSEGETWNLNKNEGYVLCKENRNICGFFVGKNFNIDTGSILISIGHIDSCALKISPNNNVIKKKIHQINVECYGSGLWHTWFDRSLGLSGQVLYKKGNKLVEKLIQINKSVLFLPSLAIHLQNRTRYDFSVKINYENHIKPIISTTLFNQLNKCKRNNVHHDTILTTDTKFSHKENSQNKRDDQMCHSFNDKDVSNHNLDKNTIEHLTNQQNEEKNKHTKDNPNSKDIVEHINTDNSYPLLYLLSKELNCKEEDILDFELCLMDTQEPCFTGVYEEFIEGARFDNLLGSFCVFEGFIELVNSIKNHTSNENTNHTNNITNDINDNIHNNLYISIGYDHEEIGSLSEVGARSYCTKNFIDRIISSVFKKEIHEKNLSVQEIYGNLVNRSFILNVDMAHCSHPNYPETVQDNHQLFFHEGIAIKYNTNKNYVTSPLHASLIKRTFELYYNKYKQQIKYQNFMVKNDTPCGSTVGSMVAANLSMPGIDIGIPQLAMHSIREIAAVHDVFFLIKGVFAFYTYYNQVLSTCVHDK
Sequence of Procathepsin L (P07711 whole entry): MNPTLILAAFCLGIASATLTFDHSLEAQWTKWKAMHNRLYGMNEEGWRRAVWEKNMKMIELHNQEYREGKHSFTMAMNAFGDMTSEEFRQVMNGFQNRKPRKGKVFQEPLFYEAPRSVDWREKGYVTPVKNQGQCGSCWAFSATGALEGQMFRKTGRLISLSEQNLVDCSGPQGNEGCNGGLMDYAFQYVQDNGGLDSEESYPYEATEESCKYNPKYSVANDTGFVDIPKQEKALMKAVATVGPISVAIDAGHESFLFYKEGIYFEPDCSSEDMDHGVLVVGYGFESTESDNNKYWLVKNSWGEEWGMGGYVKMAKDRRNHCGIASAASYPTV
Sequence of Genome polyprotein (P29990 2492-3391 limits assumed): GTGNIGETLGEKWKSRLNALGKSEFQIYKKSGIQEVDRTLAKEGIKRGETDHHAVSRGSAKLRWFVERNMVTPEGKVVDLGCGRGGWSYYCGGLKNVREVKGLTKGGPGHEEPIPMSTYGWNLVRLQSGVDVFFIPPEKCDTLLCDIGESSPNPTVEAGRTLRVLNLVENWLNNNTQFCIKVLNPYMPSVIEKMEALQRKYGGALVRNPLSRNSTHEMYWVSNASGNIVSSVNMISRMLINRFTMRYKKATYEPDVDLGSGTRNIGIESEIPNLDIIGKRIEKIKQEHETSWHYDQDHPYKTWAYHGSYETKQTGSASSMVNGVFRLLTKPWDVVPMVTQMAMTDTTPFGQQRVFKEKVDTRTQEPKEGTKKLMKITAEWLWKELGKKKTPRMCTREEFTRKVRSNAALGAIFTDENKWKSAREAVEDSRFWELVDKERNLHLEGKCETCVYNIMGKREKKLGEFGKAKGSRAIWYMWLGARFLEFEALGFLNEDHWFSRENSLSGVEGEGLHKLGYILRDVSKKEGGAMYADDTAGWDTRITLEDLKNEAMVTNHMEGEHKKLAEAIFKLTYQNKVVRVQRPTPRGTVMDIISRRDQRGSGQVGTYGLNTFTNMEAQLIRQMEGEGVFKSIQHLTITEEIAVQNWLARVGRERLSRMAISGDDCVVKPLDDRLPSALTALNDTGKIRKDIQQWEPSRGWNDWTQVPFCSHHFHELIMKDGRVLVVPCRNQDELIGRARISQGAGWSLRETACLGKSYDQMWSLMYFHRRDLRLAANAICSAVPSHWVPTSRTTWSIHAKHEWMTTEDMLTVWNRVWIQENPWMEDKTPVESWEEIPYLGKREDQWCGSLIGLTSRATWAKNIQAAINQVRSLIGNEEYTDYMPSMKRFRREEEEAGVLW

O=C(Nc1cccc(C(F)(F)F)c1)Nn1cnnc1
IC50 [1]: > 59.6 µM (not active) | IC50 [2]: 2.32 µM (active)

CCC1(c2ccc(F)cc2)NC(=O)N(CC(=O)Nc2ccc(-c3nc4ccc(C)cc4s3)cc2)C1=O (centres undefined)
EC50 [3]: 7.37 µM (active) | EC50 [4]: 12.3 µM (active) | Absolute IC50 (XBP1) [5]: 10 µM | AC50 [6]: 8.98 µM (active) | CC50 [7]: 15.5 µM (active)

O=C(OCc1ccc(Cl)c(Cl)c1)c1ccccn1
IC50 [8]: 16.9 µM (active) | AC50 [9]: 29.3 µM (active)

CCCCCc1c(C)nc(Nc2ccccc2)nc1O
Absolute IC50 (XBP1) [5]: 10 µM

Cn1c(SCC(=O)Nc2sccc2C#N)nnc1-c1ccccc1
IC50 [10]: 17.1 µM (active)

O=C(Nc1ccc(Cl)c(Cl)c1)Nn1cnnc1
IC50 [1]: > 59.6 µM (not active) | IC50 [2]: 0.837 µM (active)

CC(C)C[C@H](NC(=O)c1[nH]cnc1C(=O)N1CCN(C(=O)OC(C)(C)C)CC1)C(=O)OC(C)(C)C
IC50 [11]: 34.8 µM (active) | IC50 [12]: 1.43 µM (active) | CC50 [7]: 13.3 µM (active)

Cc1onc(-c2c(F)cccc2Cl)c1C(=O)OCC(=O)NCc1ccco1
IC50 [10]: 38.6 µM (not active)

CCCSC1=N/C(=C\C=C\c2ccco2)C(=O)S1
IC50 [13]: 9.71 µM (active) | IC50 [14]: 3.05 µM (inconclusive) | IC50 [15]: 11.9 µM (active) | IC50 [16]: > 50 µM (not active) | CC50 [17]: > 40 µM (active) | IC50 [18]: 3.97 µM (active)

COc1ccc(C(=O)Nc2nc3ccccc3n2Cc2ccc(Cl)cc2)cc1
IC50 [19]: > 20 µM (inactive) | IC50 [20]: > 20 µM (inactive) | IC50 [21]: > 20 µM (inactive) | IC50 [22]: > 20 µM (inactive)

CCOC1=CC(=O)OC(c2ccccc2)C1 (centres undefined)
AC50 [9]: 3.54 µM (active)

Nc1nc2ccccc2n1C(=O)Cc1ccccc1
IC50 [19]: > 20 µM (inactive) | IC50 [20]: > 20 µM (inactive) | IC50 [21]: > 20 µM (inactive) | IC50 [22]: > 20 µM (inactive)

c1coc(-c2nc3ccccc3nc2-c2ccco2)c1
EC50 [23]: 12 µM (active) | IC50 [16]: < 0.023 µM (not active) | IC50 [24]: 12.4 µM (active) | IC50 [25]: > 100 µM (active) | IC50 [26]: > 50 µM (inactive) | EC50 [27]: 21.6 µM (active) | IC50 [18]: < 0.4 µM (active)
